Values quoted from earlier work as cited in patent US8383579B2, “Method for customized dispensing of variable dose drug combination products for individualizing of therapies” (Glaxosmithkline, LLC, priority 2004, dated 2013).

Assays:
[1] = Coreg + cimetidine
[2] = Lanoxin + coreg UID

| AUC steady state [1] | Cmax [1] | peak/trough conc [2] | SMILES |
| --- | --- | --- | --- |
| 30% | no change | – | COc1ccccc1OCCNCC(O)COc1cccc2[nH]c3ccccc3c12 (stereo not drawn) [Coreg] |
| – | – | 14-16% | C[C@H]1O[C@@H](O[C@H]2[C@@H](O)C[C@H](O[C@H]3[C@@H](O)C[C@H](O[C@H]4CC[C@@]5(C)[C@H](CC[C@@H]6[C@@H]5C[C@@H](O)[C@]5(C)[C@@H](C7=CC(=O)OC7)CC[C@]65O)C4)O[C@@H]3C)O[C@@H]2C)C[C@H](O)[C@@H]1O [Lanoxin, digoxin] |
